# Test results: the NIST ThermoML archive (doi:10.1016/j.fluid.2005.03.016)
# “And” between values parts separate entries of the source, which are not always exact repeats. Equal entries are not always repeated. Numbers after ± are expanded uncertainties.
# Conditions: Liquid, Closed cell (Static) method
vapor or sublimation pressure (313.08 K),vapor or sublimation pressure (313.1 K),vapor or sublimation pressure (313.07 K),further results,Compound
13.77 ± 0.41 kPa,–,–,–,CC(C)(C)O [2-methylpropan-2-ol]
530.05 ± 2.4 kPa and 529.95 ± 2.4 kPa,529.95 ± 2.4 kPa,–,vapor or sublimation pressure (313.06 K): 529.65 ± 2.3 kPa; vapor or sublimation pressure (313.12 K): 530.75 ± 2.3 kPa,CC(C)C [2-methylpropane]
–,5.97 ± 0.4 kPa,–,–,CCC(C)O (centres undefined) [butan-2-ol]
–,–,17.77 ± 0.41 kPa,–,CCO [ethanol]
–,–,35.27 ± 0.43 kPa,–,CO [methanol]
–,–,–,vapor or sublimation pressure (313.11 K): 13.77 ± 0.41 kPa,CC(C)O [propan-2-ol]
